Results as given in PMC3518498 (Oncoimmunology, 2012).

Columns and labels:
[1] = biological target: T1, HLA-A2 (A*0201) (Homo sapiens, UniProt P04439, D140Y/D185E/D98H/E176V/E277Q/G131W/G231S/I119V/I121R/I166T/I218V/L300P/L318F/N151K/N90K/P208A/P217A/Q86G/Q94H/R138H/R169H/T345S); experiment: iTopia stability; details: Table 1
[2] = biological target: T1, HLA-A2 (A*0201); experiment: iTopia initial binding assay; details: Table 1
[3] = system: HLA-A2 transgenic (HHD) mice; experiment: Peptide immunization of HHD mice, IFNγ intracellular staining of splenocytes; type: in vivo, mouse; details: for Average % CD8+IFNγ+ cells: group average, splenocytes stimulated with native peptide

Row | Sequence | Binding after 8 h incubation w/o free peptide, % pos control [1] | MHC complex stability (T1/2) [1] | Initial binding, % pos control [2] | Average % CD8+IFNγ+ cells ([3]; HHD mice) | Fold higher native peptide-specific T-cell response with analog ([3]; analog vs. native peptide immunization, HHD mice) | Corresponding native peptide: CMIR, % CD8+IFNγ+ cells ([3]; HHD mice immunized with the native peptide, Table 1) | Corresponding native peptide: Fraction of responders ([3]; HHD mice immunized with the native peptide, responder > 0.1%, Table 1) | Range of individual mouse responses, % CD8+IFNγ+ cells ([3]; HHD mice, individual animals)
1 | ALCRWGLLV [H.5.V9] | 33.9 % pos control | 6.2 h | 72.3 % pos control | – | – | – | – | –
2 | ALVGILLVVV [H.657(10).L2] | 17.8 % pos control | – | 13.8 % pos control | – | – | – | – | –
3 | ALVGIMIGV [C.687.L2] | 76.2 % pos control | 26.3 h | 73.7 % pos control | – | – | – | – | –
4 | AVVGILLVV [H.657] | 12.0 % pos control | 8.6 h | 20.6 % pos control | – | – | – | – | –
5 | ILAKFLHWLM [T.540(10)] | – | – | – | – | – | 0.06 % CD8+IFNγ+ cells | 1/5 | –
6 | RLTVTTITV [C.310.L2] | 64.4 % pos control | 25.4 h | 61.2 % pos control | – | – | – | – | 3.0–14.3%
7 | VVLGVVFGV [H.665.V9] | 72.7 % pos control | 40.0 h | 65.8 % pos control | – | – | – | – | –
8 | YLSGANLNV [C.605.V9] | 78.5 % pos control | 27.4 h | 73.2 % pos control | – | – | – | – | –

More lines, main results first:

Row | Binding after 8 h incubation w/o free peptide, % pos control [1] | MHC complex stability (T1/2) [1] | Initial binding, % pos control [2] | Sequence | Average % CD8+IFNγ+ cells ([3]; HHD mice) | Fold higher native peptide-specific T-cell response with analog ([3]; analog vs. native peptide immunization, HHD mice) | Corresponding native peptide: CMIR, % CD8+IFNγ+ cells ([3]; HHD mice immunized with the native peptide, Table 1) | Corresponding native peptide: Fraction of responders ([3]; HHD mice immunized with the native peptide, responder > 0.1%, Table 1) | Range of individual mouse responses, % CD8+IFNγ+ cells ([3]; HHD mice, individual animals)
9 | 54.5 % pos control | 7.8 h | 69.5 % pos control | FLDLQVNSL [T.986] | – | – | – | – | –
10 | 74.4 % pos control | 40.0 h | 48.0 % pos control | FLHWLMSVYV [T.544] | – | – | – | – | –
11 | 76.2 % pos control | 13.2 h | 88.4 % pos control | FLVDDFLLV [T.865.F1] | > 0.1 % CD8+IFNγ+ cells | 1.9 fold | – | – | –
12 | 88.8 % pos control | 16.8 h | 99.8 % pos control | ILAKFLHWLV [T.540(10).V10] | > 0.1 % CD8+IFNγ+ cells | – | – | – | –
13 | 114.9 % pos control | 40.0 h | 79.7 % pos control | KLFGSLAFL | – | – | – | – | –
14 | 66.3 % pos control | 21.6 h | 80.2 % pos control | LLDTRTLEV [T.934] | – | – | – | – | –
